# From patent US20130011361A1, “PYRAZOLE DERIVATIVES WHICH MODULATE STEAROYL-COA DESATURASE” (XENON PHARMACEUTICALS INC., priority 2009, published 2013)
# Columns and labels:
# [1] = target: T1, stearoyl-CoA desaturase (SCD1) (Mus musculus, UniProt P13516); assay: SCD inhibition assay using mouse liver microsomes (release of 3H2O from [9,10-3H]stearoyl-CoA); format: biochemical; details: 15 min incubation, 25° C., read-out: Microsomal IC50
# T1 construct: Reactions are started by adding 50 μL of microsomes (1.25 mg/mL); from tissue; host or cells: liver microsomes of male ICR outbred mice on a high-carbohydrate, low-fat diet
# T1 sequence (P13516 1-355): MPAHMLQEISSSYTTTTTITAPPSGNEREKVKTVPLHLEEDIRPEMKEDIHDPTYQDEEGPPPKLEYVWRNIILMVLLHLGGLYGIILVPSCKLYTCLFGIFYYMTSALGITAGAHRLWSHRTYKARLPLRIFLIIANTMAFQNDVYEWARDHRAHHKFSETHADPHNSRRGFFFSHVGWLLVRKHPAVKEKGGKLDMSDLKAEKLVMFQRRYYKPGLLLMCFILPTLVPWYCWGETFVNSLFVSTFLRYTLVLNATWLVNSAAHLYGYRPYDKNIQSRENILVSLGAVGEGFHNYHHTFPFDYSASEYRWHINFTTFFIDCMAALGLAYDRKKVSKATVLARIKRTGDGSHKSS
# Method: Measuring Stearoyl-CoA Desaturase Inhibition Activity of a Test Compound Using Mouse Liver Microsomes
# Livers are immediately rinsed with cold 0.9% NaCl solution, weighed and minced with scissors. All procedures are performed at 4° C. unless specified otherwise. Livers are homogenized in a solution (1/3 w/v) containing 0.25 M sucrose, 62 mM potassium phosphate buffer (pH 7.0), 0.15 M KCl, 15 mM N-acetyleysteine, 5 mM MgCl2, and 0.1 mM EDTA using 4 strokes of a Potter-Elvehjem tissue homogenizer. The homogenate is centrifuged at 10,400×g for 20 min to eliminate mitochondria and cellular debris. The supernatant is filtered through a 3-layer cheesecloth and centrifuged at 105,000×g for 60 min. The microsomal pellet is gently resuspended in the same homogenization solution with a small glass/teflon homogenizer and stored at ˜70° C. The absence of mitochondrial contamination is enzymatically assessed. The protein concentration is measured using bovine serum albumin as the standard.
# Desaturase activity is measured as the release of ^3H2O from [9,10-^3H]stearoyl-CoA. Reactions per assay point conditions are as follows: 2 μL 1.5 mM stearoyl-CoA, 0.25 μL 1 mCi/mL ^3H stearoyl CoA, 10 μL 20 mM NADH, 36.75 μL 0.1 M PK buffer (K2HPO4/NaH2PO4, pH 7.2). The test compound or control solution is added in a 1 μL volume. […] The plates are mixed and after 15 min incubation on a heating block (25° C.), the reactions are stopped by the addition of 10 μL 60% PCA. An aliquot of 100 μL is then transferred to a filter plate pretreated with charcoal and the plate centrifuged at 4000 rpm for 1 minute. The flow through containing the ^3H2O released by the SCD1 desaturation reaction is added to scintillation fluid and the radioactivity measured in a Packard TopCount. The data is analysed to identify the IC50 for test compounds and reference compounds.
# The activity was defined in terms of % SCD enzyme activity remaining at the desired concentration of the test compound or as the IC50 concentration.
Compound,melting point,IC50 [1]
"O=C(NCc1ccc(F)c(F)c1)c1cc(-n2cnn(Cc3ccc(F)cc3)c2=O)n[nH]1 [Example 1, N-(3,4-difluorobenzyl)-3-(1-(4-fluorobenzyl)-5-oxo-1H-1,2,4-triazol-4(5H)-yl)-1H-pyrazole-5-carboxamide]",208 to 209 °C,0.008 µM
"Cc1cc(CNC(=O)c2cc(N3CCN(Cc4ccc(F)cc4)C3=O)n[nH]2)no1 [Example 5, 3-(3-(4-fluorobenzyl)-2-oxoimidazolidin-1-yl)-N-((5-methylisoxazol-3-yl)methyl)-1H-pyrazole-5-carboxamide]",294 to 296 °C (dec.),0.037 µM
"NC(=O)c1cc(-n2cnn(Cc3ccc(F)cc3)c2=O)n[nH]1 [Example 8.5, 3-(1-(4-fluorobenzyl)-5-oxo-1H-1,2,4-triazol-4(5H)-yl)-1H-pyrazole-5-carboxamide]",> 270 °C,0.488 µM
"O=C(NCc1ccccc1)c1cc(-n2cnn(Cc3ccc(F)cc3)c2=O)n[nH]1 [Example 2.1, N-benzyl-3-(1-(4-fluorobenzyl)-5-oxo-1H-1,2,4-triazol-4(5H)-yl)-1H-pyrazole-5-carboxamide]",,0.006 µM
"O=C(NCc1ccncc1)c1cc(-n2cnn(Cc3ccc(F)cc3)c2=O)n[nH]1 [Example 8.8, 3-(1-(4-fluorobenzyl)-5-oxo-1H-1,2,4-triazol-4(5H)-yl)-N-(pyridin-4-ylmethyl)-1H-pyrazole-5-carboxamide]",262 to 263 °C,0.065 µM
"Cc1cc(CNC(=O)c2cc(N3CCN(Cc4ccc(F)cc4)C3=O)n[nH]2)n[nH]1 [Example 4, 3-(3-(4-fluorobenzyl)-2-oxoimidazolidin-1-yl)-N-((5-methyl-1H-pyrazol-3-yl)methyl)-1H-pyrazole-5-carboxamide]",254 to 255 °C,0.088 µM
"NC(=O)c1cc(N2CCN(Cc3ccc(F)cc3)C2=O)n[nH]1 [Example 8.4, 3-(3-(4-fluorobenzyl)-2-oxoimidazolidin-1-yl)-1H-pyrazole-5-carboxamide]",256 to 258 °C,0.368 µM
"O=C(NCc1ccccn1)c1cc(-n2cnn(Cc3ccc(F)cc3)c2=O)n[nH]1 [Example 8, 3-(1-(4-fluorobenzyl)-5-oxo-1H-1,2,4-triazol-4(5H)-yl)-N-(pyridin-2-ylmethyl)-1H-pyrazole-5-carboxamide]",224 to 225 °C,0.023 µM
"O=C(NCc1cccnc1)c1cc(N2CCN(Cc3ccc(F)cc3)C2=O)n[nH]1 [Example 6, 3-(3-(4-fluorobenzyl)-2-oxoimidazolidin-1-yl)-N-(pyridin-3-ylmethyl)-1H-pyrazole-5-carboxamide]",251 to 253 °C,0.003 µM
"O=C(NCc1cccnc1)c1cc(-n2cnn(Cc3ccc(F)cc3)c2=O)n[nH]1 [Example 2, 3-(1-(4-fluorobenzyl)-5-oxo-1H-1,2,4-triazol-4(5H)-yl)-N-(pyridin-3-ylmethyl)-1H-pyrazole-3-carboxamide]",235 to 236 °C,0.007 µM
"Cc1cc(CNC(=O)c2cc(-n3cnn(Cc4ccc(F)cc4)c3=O)n[nH]2)no1 [Example 7, 3-(1-(4-fluorobenzyl)-5-oxo-1H-1,2,4-triazol-4(5H)-yl)-N-((5-methylisoxazol-3-yl)methyl)-1H-pyrazole-5-carboxamide]",276 to 277 °C,0.022 µM
"O=C(NCc1cocn1)c1cc(-n2cnn(Cc3ccc(F)cc3)c2=O)n[nH]1 [Example 8.6, 3-(1-(4-fluorobenzyl)-5-oxo-1H-1,2,4-triazol-4(5H)-yl)-N-(oxazol-4-ylmethyl)-1H-pyrazole-5-carboxamide]",267 to 268 °C,0.165 µM
"O=C(NCc1ccccn1)c1cc(N2CCN(Cc3ccc(F)cc3)C2=O)n[nH]1 [Example 3, 3-(3-(4-fluorobenzyl)-2-oxoimidazolidin-1-yl)-N-(pyridin-2-ylmethyl)-1H-pyrazole-5-carboxamide]",235 to 237 °C,0.045 µM
"Cn1cc(CNC(=O)c2cc(N3CCN(Cc4ccc(F)cc4)C3=O)n[nH]2)cn1 [Example 8.1, 3-(3-(4-fluorobenzyl)-2-oxoimidazolidin-1-yl)-N-((1-methyl-1H-pyrazol-4-yl)methyl)-1H-pyrazole-5-carboxamide]",244 to 245 °C,0.122 µM
"O=C(NCc1ccccc1)c1cc(N2CCN(Cc3ccc(F)cc3)C2=O)n[nH]1 [Example 8.3, N-benzyl-3-(3-(4-fluorobenzyl)-2-oxoimidazolidin-1-yl)-1H-pyrazole-5-carboxamide]",,0.011 µM
"CNC(=O)c1cc(-n2cnn(Cc3ccc(F)cc3)c2=O)n[nH]1 [Example 2.2, 3-(1-(4-Fluorobenzyl)-5-oxo-1H-1,2,4-triazol-4(5H)-yl)-N-methyl-1H-pyrazole-5-carboxamide]",268 to 269 °C,0.385 µM
"O=C(NCc1nccs1)c1cc(N2CCN(Cc3ccc(F)cc3)C2=O)n[nH]1 [Example 8.2, 3-(3-(4-fluorobenzyl)-2-oxoimidazolidin-1-yl)-N-(thiazol-2-ylmethyl)-1H-pyrazole-5-carboxamide]",272 to 274 °C,0.008 µM
